Experimental findings from ChEMBL document CHEMBL1128042, “The effect of fluorine substitution on the haemotoxicity of Primaquine” (1995) are described below.

This assay is filed under the species Mus musculus. The assay can be described thus: Antimalarial activity was evaluated against Plasmodium berghei in female CD1 mice (Mus musculus) (20-25g). In kind it is functional.

The compound `COc1cc(NC(C)CCCN)c2ncccc2c1F` (configuration not stated) yielded a median effective dose (ED50) of 7.78 µmol/kg.

Take `COc1cc(NC(C)CCCN)c2ncccc2c1` (configuration not stated) [PRIMAQUINE]: the ED50 is 2.2 µmol/kg.

Broadly, the ED50 is the midpoint of the dose-response relation. Lower therefore signals an effect at a small dose.
